Source: article PMC5908784, “Extracellular loops 2 and 3 of the calcitonin receptor selectively modify agonist binding and efficacy” (Biochemical Pharmacology, 2018)
Positions count from the first letter of the chain named. Where a SMILES comes first, the peptide text is derived from it. Bridges are numbered along the chain shown (N, C = ends).

Legend:
Experiment in all cases: cAMP accumulation
Assay type in all cases: cell-based
Conditions in all cases: mean ± S.E.M.; for Emax: cAMP maximal response, SEM; for EC50: cAMP, CV1-FlpIn cells, 30 min, IBMX
[1] = target: T1, hCTR V357A (Homo sapiens, UniProt P30988, V357A)
T1 construct: c-Myc (N); expressed in transfected cells
T1 sequence (P30988 25-474 V357A): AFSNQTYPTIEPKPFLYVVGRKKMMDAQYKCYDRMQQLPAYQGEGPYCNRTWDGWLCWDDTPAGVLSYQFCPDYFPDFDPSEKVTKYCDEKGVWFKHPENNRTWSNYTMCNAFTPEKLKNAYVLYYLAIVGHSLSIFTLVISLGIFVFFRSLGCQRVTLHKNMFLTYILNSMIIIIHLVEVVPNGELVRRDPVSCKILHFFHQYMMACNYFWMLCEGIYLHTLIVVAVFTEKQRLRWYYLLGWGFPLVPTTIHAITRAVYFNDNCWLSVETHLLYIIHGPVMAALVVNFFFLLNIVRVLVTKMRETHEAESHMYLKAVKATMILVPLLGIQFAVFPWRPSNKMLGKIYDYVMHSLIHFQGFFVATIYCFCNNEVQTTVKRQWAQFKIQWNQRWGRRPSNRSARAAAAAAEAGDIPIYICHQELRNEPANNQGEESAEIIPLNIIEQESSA
How it was run: (§1)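 Cells expressing the receptor mutant were seeded overnight, then stimulated with increasing ligand concentrations for 30 min in the presence of IBMX. After ethanol extraction and drying at room temperature, cAMP was measured and normalized to the 100 μM forskolin response. EC50 and Emax came from 3-parameter logistic fits.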

[2] = target: T2, hCTR W361A (Homo sapiens, UniProt P30988, W361A)
T2 construct: expressed in transfected cells
T2 sequence (P30988 25-474 W361A): T1 sequence (P30988 25-474 V357A) with A333V, W337A
How it was run: as §1

[3] = target: T3, hCTR Y299A (Homo sapiens, UniProt P30988, Y299A)
T3 construct: c-Myc (N); expressed in transfected cells
T3 sequence (P30988 25-474 Y299A): T1 sequence (P30988 25-474 V357A) with Y275A, A333V
How it was run: as §1

[4] = target: T4, hCTR I279A (Homo sapiens, UniProt P30988, I279A)
T4 construct: expressed in transfected cells
T4 sequence (P30988 25-474 I279A): T1 sequence (P30988 25-474 V357A) with I255A, A333V
How it was run: as §1

[5] = target: T5, hCTR D373A (Homo sapiens, UniProt P30988, D373A)
T5 construct: c-Myc (N); expressed in transfected cells
T5 sequence (P30988 25-474 D373A): T1 sequence (P30988 25-474 V357A) with A333V, D349A
How it was run: as §1

| EC50 [1] [nM] | EC50 [2] [nM] | EC50 [3] [nM] | EC50 [4] [nM] | EC50 [5] [nM] | Compound | Emax [1] [%] | Emax [2] [%] | Emax [3] [%] | Emax [4] [%] | Emax [5] [%] |
| --- | --- | --- | --- | --- | --- | --- | --- | --- | --- | --- |
|  |  |  |  |  | CC[C@H](C)[C@H](NC(=O)[C@H](C)NC(=O)[C@@H](NC(=O)[C@H](CCC(N)=O)NC(=O)[C@@H]1CCCN1C(=O)[C@H](Cc1ccccc1)NC(=O)[C@@H](NC(=O)[C@H](Cc1c[nH]cn1)NC(=O)[C@H](Cc1ccccc1)NC(=O)[C@H](CCCCN)NC(=O)[C@H](CC(N)=O)NC(=O)[C@H](Cc1ccccc1)NC(=O)[C@H](CC(=O)O)NC(=O)[C@H](CCC(N)=O)NC(=O)[C@@H](NC(=O)[C@H](Cc1ccc(O)cc1)NC(=O)[C@@H](NC(=O)CNC(=O)[C@H](CC(C)C)NC(=O)[C@H](CCSC)NC(=O)[C@@H]1CSSC[C@H](N)C(=O)NCC(=O)N[C@@H](CC(N)=O)C(=O)N[C@@H](CC(C)C)C(=O)N[C@@H](CO)C(=O)N[C@@H]([C@@H](C)O)C(=O)N1)[C@@H](C)O)[C@@H](C)O)[C@@H](C)O)[C@@H](C)O)C(=O)NCC(=O)N[C@H](C(=O)NCC(=O)N[C@@H](C)C(=O)N1CCC[C@H]1C(N)=O)C(C)C [hCT] | 137 ± 6 | 132 ± 9 | 133 ± 9 | 91 ± 4 | 142 ± 8 |
| 29.5 | 97.7 | 33.1 | 3.39 | 11.2 | CC(C)C[C@H](NC(=O)CNC(=O)[C@H](C)NC(=O)[C@H](CC(C)C)NC(=O)[C@H](CCCNC(=N)N)NC(=O)[C@H](Cc1cnc[nH]1)NC(=O)[C@@H](NC(=O)[C@@H](NC(=O)[C@@H]1CSSC[C@H](NC(=O)[C@H](C)N)C(=O)N[C@@H](CC(=O)O)C(=O)N[C@@H]([C@@H](C)O)C(=O)N[C@@H](C)C(=O)N[C@@H]([C@@H](C)O)C(=O)N1)C(C)C)[C@@H](C)O)C(=O)N[C@@H](CC(C)C)C(=O)N[C@@H](CO)C(=O)N[C@@H](CCCNC(=N)N)C(=O)N[C@@H](CO)C(=O)NCC(=O)NCC(=O)N[C@H](C(=O)N[C@H](C(=O)N[C@@H](CCCCN)C(=O)N[C@@H](CC(N)=O)C(=O)N[C@@H](CC(N)=O)C(=O)N[C@@H](Cc1ccccc1)C(=O)N[C@H](C(=O)N1CCC[C@H]1C(=O)N[C@H](C(=O)N[C@@H](CC(N)=O)C(=O)N[C@H](C(=O)NCC(=O)N[C@@H](CO)C(=O)N[C@@H](CCCCN)C(=O)N[C@@H](C)C(=O)N[C@@H](Cc1ccccc1)C(N)=O)C(C)C)[C@@H](C)O)C(C)C)C(C)C)C(C)C [hαCGRP] | 82 ± 10 | 102 ± 16 | 62 ± 16 | 139 ± 18 | 34 ± 5 |
| 0.151 | 0.148 | 0.135 | 0.0398 | 0.389 | CSCC[C@H](NC(=O)CNC(=O)[C@H](CO)NC(=O)[C@H](Cc1ccccc1)NC(=O)[C@H](CCCNC(=N)N)NC(=O)[C@H](Cc1c[nH]cn1)NC(=O)[C@H](Cc1ccccc1)NC(=O)[C@H](CC(N)=O)NC(=O)[C@H](CC(N)=O)NC(=O)[C@H](CC(C)C)NC(=O)[C@H](CC(N)=O)NC(=O)[C@H](CCCNC(=N)N)NC(=O)[C@H](Cc1c[nH]c2ccccc12)NC(=O)[C@H](Cc1ccc(O)cc1)NC(=O)[C@H](C)NC(=O)[C@H](CO)NC(=O)[C@H](CC(C)C)NC(=O)[C@@H](NC(=O)[C@@H]1CSSC[C@H](N)C(=O)N[C@@H](CO)C(=O)N[C@@H](CC(N)=O)C(=O)N[C@@H](CC(C)C)C(=O)N[C@@H](CO)C(=O)N[C@@H]([C@@H](C)O)C(=O)N1)C(C)C)C(=O)NCC(=O)N[C@@H](Cc1ccccc1)C(=O)NCC(=O)N1CCC[C@H]1C(=O)N[C@@H](CCC(=O)O)C(=O)N[C@H](C(=O)N1CCC[C@H]1C(N)=O)[C@@H](C)O [pCT] (H-CSNLSTCVLSAYWRNLNNFHRFSGMGFGPETP-NH2; disulfide 1-7) | 154 ± 17 | 133 ± 9 | 117 ± 9 | 97 ± 4 | 158 ± 9 |
|  |  |  |  |  | CC(C)C[C@H](NC(=O)[C@H](CC(N)=O)NC(=O)[C@H](CC(N)=O)NC(=O)[C@H](CO)NC(=O)[C@H](CO)NC(=O)[C@H](CCCNC(=N)N)NC(=O)[C@@H](NC(=O)[C@H](CC(C)C)NC(=O)[C@H](Cc1ccccc1)NC(=O)[C@H](CC(N)=O)NC(=O)[C@H](C)NC(=O)[C@H](CC(C)C)NC(=O)[C@H](CCCNC(=N)N)NC(=O)[C@H](CCC(N)=O)NC(=O)[C@@H](NC(=O)[C@H](C)NC(=O)[C@@H]1CSSC[C@H](NC(=O)[C@@H](N)CCCCN)C(=O)N[C@@H](CC(N)=O)C(=O)N[C@@H]([C@@H](C)O)C(=O)N[C@@H](C)C(=O)N[C@@H]([C@@H](C)O)C(=O)N1)[C@@H](C)O)C(C)C)C(=O)NCC(=O)N1CCC[C@H]1C(=O)N[C@H](C(=O)N[C@@H](CC(C)C)C(=O)N1CCC[C@H]1C(=O)N1CCC[C@H]1C(=O)N[C@H](C(=O)N[C@@H](CC(N)=O)C(=O)N[C@H](C(=O)NCC(=O)N[C@@H](CO)C(=O)N[C@@H](CC(N)=O)C(=O)N[C@H](C(=O)N[C@@H](Cc1ccc(O)cc1)C(N)=O)[C@@H](C)O)C(C)C)[C@@H](C)O)C(C)C [rAmy] | 88 ± 10 | 102 ± 13 | 102 ± 1 | 81 ± 9 | 64 ± 16 |
|  |  |  |  |  | CC(C)C[C@H](NC(=O)[C@H](CCCCN)NC(=O)CNC(=O)[C@H](CC(C)C)NC(=O)[C@@H](NC(=O)[C@@H]1CSSC[C@H](N)C(=O)N[C@@H](CO)C(=O)N[C@@H](CC(N)=O)C(=O)N[C@@H](CC(C)C)C(=O)N[C@@H](CO)C(=O)N[C@@H]([C@@H](C)O)C(=O)N1)C(C)C)C(=O)N[C@@H](CO)C(=O)N[C@@H](CCC(N)=O)C(=O)N[C@@H](CCC(=O)O)C(=O)N[C@@H](CC(C)C)C(=O)N[C@@H](Cc1c[nH]cn1)C(=O)N[C@@H](CCCCN)C(=O)N[C@@H](CC(C)C)C(=O)N[C@@H](CCC(N)=O)C(=O)N[C@H](C(=O)N[C@@H](Cc1ccc(O)cc1)C(=O)N1CCC[C@H]1C(=O)N[C@@H](CCCNC(=N)N)C(=O)N[C@H](C(=O)N[C@@H](CC(N)=O)C(=O)N[C@H](C(=O)NCC(=O)N[C@@H](CO)C(=O)NCC(=O)N[C@H](C(=O)N1CCC[C@H]1C(N)=O)[C@@H](C)O)[C@@H](C)O)[C@@H](C)O)[C@@H](C)O [sCT] | 133 ± 12 | 126 ± 7 | 110 ± 7 | 90 ± 6 | 116 ± 8 |
